According to publication PMC9541843, “N‐terminal alterations turn the gut hormone GLP‐2 into an antagonist with gradual loss of GLP‐2 receptor selectivity towards more GLP‐1 receptor interaction” (British Journal of Pharmacology, 2022):
Like-named read-outs stand apart in the source and are kept apart here. Peptide text beside a SMILES is read from it. * marks the point of attachment. C16 diacid = O=C(O)CCCCCCCCCCCCCCC(=O)*

How the values were obtained:
[1] = biological target: human GLP‐1R (Homo sapiens, UniProt P43220); test: cAMP accumulation, inhibition of GLP‐1‐mediated response (selectivity); details: for inhibition at 1 µM: COS-7, read-out: Inhibition of GLP‐1‐mediated cAMP response at the human GLP‐1R
[2] = biological target: T1, human GLP‐2R (Homo sapiens, UniProt O95838); test: cAMP accumulation, agonism (HitHunter cAMP assay); details: for Emax: COS-7, read-out: cAMP activation Emax ± SEM
T1 sequence (O95838 1-553): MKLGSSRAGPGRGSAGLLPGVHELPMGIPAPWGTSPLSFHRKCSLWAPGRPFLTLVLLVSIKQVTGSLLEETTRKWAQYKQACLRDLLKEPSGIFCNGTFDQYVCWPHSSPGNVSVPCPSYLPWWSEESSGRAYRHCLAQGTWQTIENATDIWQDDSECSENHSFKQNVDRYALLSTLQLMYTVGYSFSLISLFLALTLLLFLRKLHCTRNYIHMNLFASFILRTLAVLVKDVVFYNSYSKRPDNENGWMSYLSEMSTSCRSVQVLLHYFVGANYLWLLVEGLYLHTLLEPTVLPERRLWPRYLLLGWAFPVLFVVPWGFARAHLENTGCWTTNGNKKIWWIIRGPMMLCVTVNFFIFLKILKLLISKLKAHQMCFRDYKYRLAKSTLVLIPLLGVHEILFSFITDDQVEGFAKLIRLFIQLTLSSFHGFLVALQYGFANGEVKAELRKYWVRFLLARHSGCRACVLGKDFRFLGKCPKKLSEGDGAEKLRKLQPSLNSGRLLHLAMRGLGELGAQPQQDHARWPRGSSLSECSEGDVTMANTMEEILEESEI

[3] = biological target: T1, human GLP‐2R; test: cell-based; details: SEM
Experimental: After incubation, the cells were washed twice in 400 μl per well ice‐cold binding buffer and lysed using 500 μl per well of 200 mM NaOH with 1% SDS for 30 min. The samples were counted using the Wizard Gamma Counter (PerkinElmer, Waltham, MA).

[4] = biological target: T1, human GLP‐2R; test: cAMP accumulation, inhibition of GLP‐2‐induced activation; details: for Inhibition of GLP‐2‐induced cAMP at the human GLP‐2R: at 1 μM peptide (highest tested concentration), COS‐7 cells
[5] = biological target: T1, human GLP‐2R; test: Schild plot analysis of cAMP activation curve of GLP‐2; type: cell-based; design: host or cells: COS-7 (transient, calcium phosphate); details: COS‐7 cells, n = 5 in duplicate, read-out: Ki from Schild plot (pA2) (converted)
Experimental: Statistical significance was accepted at P < 0.05.
We used a Schild plot approach, where we examined their ability to right‐shift the cAMP activation curve of native GLP‐2 (Figure 4a–d). For GLP‐2(2‐33), GLP‐(3‐33) and GLP‐2(4‐33), all having intrinsic activity, the Schild plot analysis was based on an equieffective DR (the concentrations at 60% of Emax). For GLP‐2(3‐33)[D3A], with no intrinsic activity, the Schild plot analysis was conducted based on the shift in the EC50 values for GLP‐2 with and without GLP‐2(3‐33)[D3A] as previously described (Sparre‐Ulrich et al., [2017]).

human GLP‐1R, sequence (P43220 24-463): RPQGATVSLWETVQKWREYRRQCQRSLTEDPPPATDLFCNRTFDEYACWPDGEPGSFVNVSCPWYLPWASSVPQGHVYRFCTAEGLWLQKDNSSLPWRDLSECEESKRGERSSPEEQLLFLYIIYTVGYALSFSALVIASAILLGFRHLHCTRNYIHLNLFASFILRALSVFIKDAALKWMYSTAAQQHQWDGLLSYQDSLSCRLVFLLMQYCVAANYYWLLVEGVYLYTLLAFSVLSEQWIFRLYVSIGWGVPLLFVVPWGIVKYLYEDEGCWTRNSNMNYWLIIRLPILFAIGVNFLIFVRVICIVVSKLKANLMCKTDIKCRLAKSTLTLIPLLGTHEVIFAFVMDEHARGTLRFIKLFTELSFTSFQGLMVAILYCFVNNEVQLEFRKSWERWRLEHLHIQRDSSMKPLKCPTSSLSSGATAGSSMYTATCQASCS

Row | SMILES | inhibition at 1 µM [1] [%] | Emax ([2]; SEM) [%] | IC50 [3] [nM] | Ki [5] [nM] | IC50 [1] [nM] | IC50 [4] [nM] | Inhibition of GLP‐2‐induced cAMP at the human GLP‐2R [4] [%] | also measured
1 | CC[C@H](C)[C@H](NC(=O)[C@H](Cc1ccccc1)NC(=O)[C@H](CC(=O)O)NC(=O)[C@H](CCCNC(=N)N)NC(=O)[C@H](C)NC(=O)[C@H](C)NC(=O)[C@H](CC(C)C)NC(=O)[C@H](CC(N)=O)NC(=O)[C@H](CC(=O)O)NC(=O)[C@H](CC(C)C)NC(=O)[C@@H](NC(=O)[C@@H](NC(=O)[C@H](CC(N)=O)NC(=O)[C@H](CCSC)NC(=O)[C@H](CCC(=O)O)NC(=O)[C@H](CC(=O)O)NC(=O)[C@H](CO)NC(=O)[C@H](Cc1ccccc1)NC(=O)[C@H](CO)NC(=O)CNC(=O)[C@@H](N)CC(=O)O)[C@@H](C)O)[C@@H](C)CC)C(=O)N[C@@H](CC(N)=O)C(=O)N[C@@H](Cc1c[nH]c2ccccc12)C(=O)N[C@@H](CC(C)C)C(=O)N[C@H](C(=O)N[C@@H](CCC(N)=O)C(=O)N[C@H](C(=O)N[C@@H](CCCCN)C(=O)N[C@H](C(=O)N[C@H](C(=O)N[C@@H](CC(=O)O)C(=O)O)[C@@H](C)O)[C@@H](C)CC)[C@@H](C)O)[C@@H](C)CC [GLP‐2(3‐33)] (H-DGSFSDEMNTILDNLAARDFINWLIQTKITD-OH) | 30 to 38 | 21 ± 2.2 | – | – | – | – | – | –
2 | CC[C@H](C)[C@H](NC(=O)[C@H](Cc1ccccc1)NC(=O)[C@H](CC(=O)O)NC(=O)[C@H](CCCNC(=N)N)NC(=O)[C@H](C)NC(=O)[C@H](C)NC(=O)[C@H](CC(C)C)NC(=O)[C@H](CC(N)=O)NC(=O)[C@H](CC(=O)O)NC(=O)[C@H](CC(C)C)NC(=O)[C@@H](NC(=O)[C@@H](NC(=O)[C@H](CC(N)=O)NC(=O)[C@H](CCSC)NC(=O)[C@H](CCC(=O)O)NC(=O)[C@H](CC(=O)O)NC(=O)[C@H](CO)NC(=O)[C@H](Cc1ccccc1)NC(=O)[C@H](CO)NC(=O)CN)[C@@H](C)O)[C@@H](C)CC)C(=O)N[C@@H](CC(N)=O)C(=O)N[C@@H](Cc1c[nH]c2ccccc12)C(=O)N[C@@H](CC(C)C)C(=O)N[C@H](C(=O)N[C@@H](CCC(N)=O)C(=O)N[C@H](C(=O)N[C@@H](CCCCN)C(=O)N[C@H](C(=O)N[C@H](C(=O)N[C@@H](CC(=O)O)C(=O)O)[C@@H](C)O)[C@@H](C)CC)[C@@H](C)O)[C@@H](C)CC [GLP‐2(4‐33)] (H-GSFSDEMNTILDNLAARDFINWLIQTKITD-OH) | – | 17 ± 2.6 | 6.31 | 6.3 | – | – | – | EC50 [2]: 158 nM; IC50 ([4]; SEM): 79.4 nM
3 | CC[C@H](C)[C@H](NC(=O)[C@H](Cc1ccccc1)NC(=O)[C@H](CC(=O)O)NC(=O)[C@H](CCCNC(=N)N)NC(=O)[C@H](C)NC(=O)[C@H](C)NC(=O)[C@H](CC(C)C)NC(=O)[C@H](CC(N)=O)NC(=O)[C@H](CC(=O)O)NC(=O)[C@H](CC(C)C)NC(=O)[C@@H](NC(=O)[C@@H](NC(=O)[C@H](CC(N)=O)NC(=O)[C@H](CCSC)NC(=O)[C@H](CCC(=O)O)NC(=O)[C@H](CC(=O)O)NC(=O)[C@H](CO)NC(=O)[C@H](Cc1ccccc1)NC(=O)[C@H](CO)NC(=O)CNC(=O)[C@H](CC(=O)O)NC(=O)CCCCCCCCCCCCCCC(=O)O)[C@@H](C)O)[C@@H](C)CC)C(=O)N[C@@H](CC(N)=O)C(=O)N[C@@H](Cc1c[nH]c2ccccc12)C(=O)N[C@@H](CC(C)C)C(=O)N[C@H](C(=O)N[C@@H](CCC(N)=O)C(=O)N[C@H](C(=O)N[C@@H](CCCCN)C(=O)N[C@H](C(=O)N[C@H](C(=O)N[C@@H](CC(=O)O)C(=O)O)[C@@H](C)O)[C@@H](C)CC)[C@@H](C)O)[C@@H](C)CC [GLP‐2(3‐33)(C16‐diacid/3)] ({C16 diacid}-DGSFSDEMNTILDNLAARDFINWLIQTKITD-OH) | 91 | – | – | – | 50 | 7.9 | 87 | Emax [2]: 25%
4 | CC[C@H](C)[C@H](NC(=O)[C@H](Cc1ccccc1)NC(=O)[C@H](CC(=O)O)NC(=O)[C@H](CCCNC(=N)N)NC(=O)[C@H](C)NC(=O)[C@H](C)NC(=O)[C@H](CC(C)C)NC(=O)[C@H](CC(N)=O)NC(=O)[C@H](CC(=O)O)NC(=O)[C@H](CC(C)C)NC(=O)[C@@H](NC(=O)[C@@H](NC(=O)[C@H](CC(N)=O)NC(=O)[C@H](CCSC)NC(=O)[C@H](CCC(=O)O)NC(=O)[C@H](CC(=O)O)NC(=O)[C@H](CO)NC(=O)[C@H](Cc1ccccc1)NC(=O)[C@H](CO)NC(=O)CNC(=O)[C@H](C)N)[C@@H](C)O)[C@@H](C)CC)C(=O)N[C@@H](CC(N)=O)C(=O)N[C@@H](Cc1c[nH]c2ccccc12)C(=O)N[C@@H](CC(C)C)C(=O)N[C@H](C(=O)N[C@@H](CCC(N)=O)C(=O)N[C@H](C(=O)N[C@@H](CCCCN)C(=O)N[C@H](C(=O)N[C@H](C(=O)N[C@@H](CC(=O)O)C(=O)O)[C@@H](C)O)[C@@H](C)CC)[C@@H](C)O)[C@@H](C)CC [GLP‐2(3‐33)[D3A]] (H-AGSFSDEMNTILDNLAARDFINWLIQTKITD-OH) | – | – | – | 40 | – | 162 | – | –
5 | CC[C@H](C)[C@H](NC(=O)[C@H](Cc1ccccc1)NC(=O)[C@H](CC(=O)O)NC(=O)[C@H](CCCNC(=N)N)NC(=O)[C@H](C)NC(=O)[C@H](C)NC(=O)[C@H](CC(C)C)NC(=O)[C@H](CC(N)=O)NC(=O)[C@H](CC(=O)O)NC(=O)[C@H](CC(C)C)NC(=O)[C@@H](NC(=O)[C@@H](NC(=O)[C@H](CC(N)=O)NC(=O)[C@H](CCSC)NC(=O)[C@H](CCC(=O)O)NC(=O)[C@H](CC(=O)O)NC(=O)[C@H](CO)NC(=O)[C@H](Cc1ccccc1)NC(=O)[C@H](CO)NC(=O)CCCCCCCCCCCCCCC(=O)O)[C@@H](C)O)[C@@H](C)CC)C(=O)N[C@@H](CC(N)=O)C(=O)N[C@@H](Cc1c[nH]c2ccccc12)C(=O)N[C@@H](CC(C)C)C(=O)N[C@H](C(=O)N[C@@H](CCC(N)=O)C(=O)N[C@H](C(=O)N[C@@H](CCCCN)C(=O)N[C@H](C(=O)N[C@H](C(=O)N[C@@H](CC(=O)O)C(=O)O)[C@@H](C)O)[C@@H](C)CC)[C@@H](C)O)[C@@H](C)CC [GLP‐2(5‐33)(C16‐diacid/5)] ({C16 diacid}-SFSDEMNTILDNLAARDFINWLIQTKITD-OH) | 67 | – | – | – | 40 | 12.3 | 93 | –
6 | CC[C@H](C)[C@H](NC(=O)[C@H](Cc1ccccc1)NC(=O)[C@H](CC(=O)O)NC(=O)[C@H](CCCN=C(N)N)NC(=O)[C@H](C)NC(=O)[C@H](C)NC(=O)[C@H](CC(C)C)NC(=O)[C@H](CC(N)=O)NC(=O)[C@H](CC(=O)O)NC(=O)[C@H](CC(C)C)NC(=O)[C@@H](NC(=O)[C@@H](NC(=O)[C@H](CC(N)=O)NC(=O)[C@H](CCSC)NC(=O)[C@H](CCC(=O)O)NC(=O)[C@H](CC(=O)O)NC(=O)[C@H](CO)NC(=O)[C@H](Cc1ccccc1)NC(=O)[C@H](CO)NC(=O)CNC(=O)[C@@H](N)CC(=O)O)[C@@H](C)O)[C@@H](C)CC)C(=O)N[C@@H](CC(N)=O)C(=O)N[C@@H](Cc1c[nH]c2ccccc12)C(=O)N[C@@H](CC(C)C)C(=O)N[C@H](C(=O)N[C@@H](CCC(N)=O)C(=O)N[C@H](C(=O)N[C@@H](CCCCN)C(=O)N[C@H](C(=O)N[C@H](C(=O)N[C@@H](CC(=O)O)C(=O)O)[C@@H](C)O)[C@@H](C)CC)[C@@H](C)O)[C@@H](C)CC [GLP‐2(3‐33)] (H-DGSFSDEMNTILDNLAARDFINWLIQTKITD-OH) | – | – | 7.94 | 126 | – | 204 | – | EC50 ([2]; SEM): 25.1 nM
